Test results: patent publication US5532218A, “3'-aziridino-anthracycline derivatives” (Farmitalia Carlo Erba S.R.L., priority 1993, dated 1996)
In brackets after ≈: the same amount, converted by molar mass.

What was measured:
[1] = system: LoVo (colon adenocarcinoma); test: cells; details: for cytotoxic activity against LoVo, in words: both cell lines; for IC50 (concentration inhibiting 50% colony formation), LoVo: colony assay, 4 h treatment
Source text: (§1) The citotoxic activity is reported as IC50, the concentration inhibiting 50% of colony formation, calculated on concentration response curves. Resistance index R.I. is the ratio between the IC50 on resistant cells and the IC50 on sensitive cells.

[2] = system: LoVo/DX (colon adenocarcinoma resistant to doxorubicin); test: cells; details: for resistance index, in words: LoVo/DX vs LoVo; for cytotoxic activity against LoVo/DX, in words: both cell lines; for R.I. = Resistance Index = (IC50 LoVo/DX)/(IC50 LoVo): ratio LoVo/DX to LoVo; for R.I. = Resistance Index = (IC50 LoVo/DX)/(IC50 LoVo) / IC50 (concentration inhibiting 50% colony formation), LoVo/DX: colony assay, 4 h treatment
Source text: as §1

[3] = system: P388 murine leukaemia resistant to doxorubicin (P388/DX); test: antitumor activity on P388/DX leukaemia in vivo; parameters: species or system murine (BD2F1 mice); details: for T/C (median survival time of treated mice/median survival time of controls × 100): P388/DX 10^5 cell/mouse i.v. in BD2F1 mice, compound i.v. one day after tumor transplantation, at optimal dose; for T/C (median survival time of treated mice/median survival time of controls × 100) / O.D. (Optimal Dose): in Tween 80 (10%); for O.D. (Optimal Dose): P388/DX in BD2F1 mice, i.v. one day after tumor transplantation; for in vivo activity compared with doxorubicin, in words: P388 murine leukaemia resistant to doxorubicin, BD2F1 mice
Source text: The compounds were suspended in Tween 80 (10%) and injected i.v. one day
after tumor transplantation.
^(2) Median survival time of treated mice/Median survival time of

Compound | IC50 ([1]; Homo sapiens, LoVo, 4 h, read-out: IC50 (concentration inhibiting 50% colony formation), LoVo) [µg/mL] | cytotoxic activity against LoVo, in words [1] | IC50 ([2]; Homo sapiens, LoVo/DX, 4 h, read-out: IC50 (concentration inhibiting 50% colony formation), LoVo/DX) [µg/mL] | resistance index, in words [2] | cytotoxic activity against LoVo/DX, in words [2] | R.I. = Resistance Index = (IC50 LoVo/DX)/(IC50 LoVo) [2] | T/C (median survival time of treated mice/median survival time of controls × 100) [3] [%] | O.D. (Optimal Dose) [3] [mg/kg] | in vivo activity compared with doxorubicin, in words [3] | IC50 (concentration inhibiting 50% colony formation), LoVo ([1]; LoVo) [µg/mL] | IC50 (concentration inhibiting 50% colony formation), LoVo/DX ([2]; LoVo/DX) [µg/mL]
CC(=O)[C@]1(O)Cc2c(O)c3c(c(O)c2[C@@H](O[C@H]2C[C@H](N4CC4)[C@H](OS(C)(=O)=O)[C@H](C)O2)C1)C(=O)c1ccccc1C3=O [Compound 1b, 4-demethoxy-3'-deamino-3'-[1-aziridinyl]-4'-O-methansulfonyl daunorubicin] | 0.027 (≈ 0.0449 µM) | high activity | 0.026 (≈ 0.0432 µM) | low resistance index | high activity | 0.9 | 240 | 3.8 | strikingly higher activity than doxorubicin | – | –
3'-deamino-3'-[1-aziridinyl]-4'-O-methansulfonyl daunorubicin [Compound 1a] | – | high activity | – | low resistance index | high activity | 1.7 | 190 | 2.2 | strikingly higher activity than doxorubicin | 0.013 | 0.022
COc1cccc2c1C(=O)c1c(O)c3c(c(O)c1C2=O)C[C@@](O)(C(=O)CO)C[C@@H]3O[C@H]1C[C@H](N)[C@H](O)[C@H](C)O1 [doxorubicin, reference compound] | – | – | – | – | – | – | – | 16.9 | – | – | –
3'-deamino-3'-[1-aziridinyl]-4'-O-methansulfonyl-14-nicotinate-doxorubicin [Compound 2a] | – | – | – | low resistance index | – | 2.9 | 200 | 2.5 | strikingly higher activity than doxorubicin | 0.014 | 0.04
3'-deamino-3'-[1-aziridinyl]-4'-O-methansulfonyl doxorubicin [Compound 2c] | – | high activity | – | low resistance index | high activity | 9.2 | 195 | 1.8 | strikingly higher activity than doxorubicin | 0.0027 | 0.024
